# pKd: −log10 of the molar value.
# Target: adenylyl cyclase-associated protein 1 (CAP1) (Homo sapiens, UniProt Q01518)
# Experiment: ITC with purified CAP1
# Type: binding
# Chain of adenylyl cyclase-associated protein 1 (CAP1) (Q01518 2-475): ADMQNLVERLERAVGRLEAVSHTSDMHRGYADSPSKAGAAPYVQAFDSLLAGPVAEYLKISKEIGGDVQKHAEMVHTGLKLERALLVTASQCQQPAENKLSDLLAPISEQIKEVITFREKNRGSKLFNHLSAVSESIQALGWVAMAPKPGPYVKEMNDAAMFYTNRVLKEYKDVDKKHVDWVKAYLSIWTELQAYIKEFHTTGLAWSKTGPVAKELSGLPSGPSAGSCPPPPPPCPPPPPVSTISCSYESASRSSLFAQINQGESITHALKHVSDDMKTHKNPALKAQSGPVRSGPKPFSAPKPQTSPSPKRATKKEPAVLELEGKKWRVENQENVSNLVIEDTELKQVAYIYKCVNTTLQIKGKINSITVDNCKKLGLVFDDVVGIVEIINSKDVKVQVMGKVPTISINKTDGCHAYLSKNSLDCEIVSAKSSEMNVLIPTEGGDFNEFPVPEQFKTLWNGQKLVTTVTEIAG
smiles,measurement,value
CC1=C(O)C(=O)C=C2C1=CC=C1[C@@]2(C)CC[C@@]2(C)[C@@H]3C[C@](C)(C(=O)O)CC[C@]3(C)CC[C@]12C [celastrol],pKd,6.96
